For the assay, the target named is T1, Prostaglandin G/H synthase 1 (Ovis aries, UniProt P05979).
T1 sequence (P05979 whole entry): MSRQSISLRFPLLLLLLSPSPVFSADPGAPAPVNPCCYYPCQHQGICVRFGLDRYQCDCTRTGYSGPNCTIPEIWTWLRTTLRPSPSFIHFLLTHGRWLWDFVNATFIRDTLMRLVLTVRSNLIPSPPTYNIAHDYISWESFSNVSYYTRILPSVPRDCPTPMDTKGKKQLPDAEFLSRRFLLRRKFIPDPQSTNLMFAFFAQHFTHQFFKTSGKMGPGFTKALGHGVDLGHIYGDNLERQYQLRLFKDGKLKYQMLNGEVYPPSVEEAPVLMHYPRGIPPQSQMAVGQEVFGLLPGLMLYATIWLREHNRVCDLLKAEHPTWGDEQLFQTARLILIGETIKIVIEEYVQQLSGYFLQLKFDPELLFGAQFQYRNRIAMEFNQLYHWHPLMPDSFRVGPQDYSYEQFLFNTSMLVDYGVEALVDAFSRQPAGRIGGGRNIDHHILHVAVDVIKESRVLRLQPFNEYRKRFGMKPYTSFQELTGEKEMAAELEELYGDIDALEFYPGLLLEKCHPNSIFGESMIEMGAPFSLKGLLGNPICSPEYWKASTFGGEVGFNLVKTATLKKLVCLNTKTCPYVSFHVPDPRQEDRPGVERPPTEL
Description: Inhibition of ovine COX1 by enzyme chemiluminescent enzyme assay

With `CS(=O)(=O)c1ccc(-c2nc3ccccc3c(N)c2-c2ccccc2)cc1`, the midpoint of inhibition, the IC50, lay at 14.4 µM.
Consider `CS(=O)(=O)c1ccc(-c2nc3ccccc3c(C(=O)O)c2-c2ccccc2)cc1`, for which the IC50 was determined as 48.1 µM.
Molecule `CS(=O)(=O)c1ccc(-c2nc3ccccc3c(-c3ccccc3)c2-c2ccccc2)cc1` returned a half-inhibitory concentration (IC50) of 10.2 µM.
Consider `CS(=O)(=O)c1ccc(-c2nc3ccccc3cc2-c2ccccc2)cc1`, for which the concentration for half-maximal inhibition (IC50) is 33.5 µM.
Take `Cc1c(-c2ccccc2)c(-c2ccc(S(C)(=O)=O)cc2)nc2ccccc12`: the half-maximal inhibitory concentration (IC50) worked out at 13.3 µM.

One may read the IC50 as the concentration that inhibits the measured activity by half.
